{"source": "paper PMC4279406", "about": "“Simultaneous targeting of PI3Kδ and a PI3Kδ-dependent MEK1/2-Erk1/2 pathway for therapy in pediatric B-cell acute lymphoblastic leukemia” (Oncotarget, 2014)", "key": {"[1]": {"system": "PI3Kβ (LPA-stimulated MEF cells)", "assay": "LPA-induced Akt phosphorylation in MEF cells", "format": "cell-based, murine", "conditions": "up to 0.5 μM; LPA 10 μM; 1 h pre-incubation", "procedure": "In fibroblasts, signals from the insulin-like growth factor 1 (IGF-1) receptor are mediated by PI3Kα, while lysophosphatidic acid (LPA) stimulates G-protein coupled receptor (GPCR) signals via PI3Kβ[26]. After being pre-incubated with X-370, murine embryonic fibroblasts cultured in serum-free medium were stimulated with IGF-1 or LPA. […] Either PI3Kδ or PI3Kγ can be activated in THP-1 monocytes dependent on the stimulating ligand, among which macrophage colony stimulating factor (M-CSF/CSF-1) activates RTK-coupled PI3Kδ, while monocyte chemoattractant protein-1 (MCP-1) activates PI3Kγ [24]. Accordingly, THP-1 cells cultured in serum-free medium were stimulated with MCP-1 or M-CSF in the presence of X-370 and phosphorylated Akt was measured.\nCell lysates were probed with indicated antibodies. The IC50 values were calculated based on relative band intensity measured with ImageQuant™ TL (GE Healthcare Life Sciences, Piscataway, NJ) (B). Data shown are mean values from three independent experiments. (C, D, E, F) X-370 blocked stimuli-triggered PI3Kδ activation. MEF cells and THP-1 were starved in serum-free medium for 12 h or 4 h respectively and X-370 were added for an additional 1 h treatment following stimulation of IGF-1 at 100 ng/ml for MEF cells (C), LPA at 10 μM for MEF cells (D), MCP-1 at 100ng/ml for THP-1 (E) and M-CSF at 50 ng/ml for THP-1 (F). […]"}, "[2]": {"system": "primary B-ALL cells", "assay": "Phosphorylated Akt and Erk1/2 in primary B-ALL cells (Western blot)", "format": "cell-based, human", "conditions": "72 h", "procedure": "Figure 6 X-370-sensitive human primary B-ALL cells contained PI3K-dependent Erk1/2 phosphorylation and combination of AZD6244 and X-370 enhanced inhibitory activity against resistant specimens (A) X-370-sensitive human primary B-ALL cells contained PI3K-dependent Erk1/2 phosphorylation. Primary B-ALL cells were treated with series diluted X-370 for 72 h. Phosphorylation of Akt and Erk1/2 were detected. (B). Combination of AZD6244 and X-370 enhanced inhibitory activity against resistant specimens. X-370 resistant primary B-ALL cells were treated with 1 μM X-370 alone or cocurently with MEK1/2 inhibitor AZD6244 (1 μM) for 72 h and cell viability were tested by CCK-8 assay. Cell viability of each treated group was compared with unpaired t-tests. *: P < 0.05. (C) X-370-resistant primary B-ALL cells were treated with X-370 in the presence of 1 μM AZD6244 or not for 72 h and phosphorylated Akt and Erk1/2 were then detected by Western blot.\nBone marrow was obtained from patients after provision of informed consent using guidelines approved by the Committee on the Use of Human Subjects in Research at Shanghai Jiaotong University or Shanghai Fudan University under a protocol approved by the Review Board. […] Cell viability and phosphorylated Akt and Erk1/2 were then detected."}}, "data": [{"smiles": "O=C(N1CCCC1)N1CCC(n2cnc3c(-n4c(C(F)F)nc5ccccc54)nc(N4CCOCC4)nc32)CC1", "note": "[X-370]", "values": [{"measurement": "LPA-induced Akt phosphorylation", "setting": "[1]", "value": "partially inhibited"}, {"measurement": "phosphorylated Erk1/2", "setting": "[2]; resistant (IC50>1 μM) samples", "value": "remained unaffected"}, {"measurement": "phosphorylated Akt and Erk1/2", "setting": "[2]; sensitive (IC50<1 μM) specimens, < 1 μM", "value": "dramatically decreased"}]}]}
